Assay results from the supplement of paper PMC10307832.

Columns and labels:
Experiment in all cases: relative viability (nuclei count vs DMSO), 5 days (fraction); higher = more cells survive
AZ505 + Palbociclib = compound: C1CCC(CC1)N(CCNCCC2=C3C(=C(C=C2)O)NC(=O)CO3)C(=O)CCNCCC4=CC(=C(C=C4)Cl)Cl [AZ505] + CC(=O)c1c(C)c2cnc(Nc3ccc(N4CCNCC4)cn3)nc2n(C2CCCC2)c1=O [Palbociclib] (partner 0.5 µM)
In short: (§1)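 Lung cancer cell lines were seeded in 1536-well plates and dosed by pin tool the next day, with either a single drug or a fixed anchor-drug dose combined with five library-drug doses (not always all listed) spaced in √10 steps. Five days later, one step fixed the cells and stained their nuclei (final 0.05% Triton X-100, 1% formaldehyde, 1 ug/ml Hoechst), and nuclei were counted on 4× images. Relative viability is the nuclei count in treated wells divided by the count in vehicle wells, and each value is the median of duplicate plates.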

AZ505 + Crizotinib = compound: C1CCC(CC1)N(CCNCCC2=C3C(=C(C=C2)O)NC(=O)CO3)C(=O)CCNCCC4=CC(=C(C=C4)Cl)Cl [AZ505] + C[C@@H](Oc1cc(-c2cnn(C3CCNCC3)c2)cnc1N)c1c(Cl)ccc(F)c1Cl [Crizotinib] (partner 1 µM)
In short: as §1

Dactolisib + Bortezomib = compound: Cn1c(=O)n(-c2ccc(C(C)(C)C#N)cc2)c2c3cc(-c4cnc5ccccc5c4)ccc3ncc21 [Dactolisib] + CC(C)C[C@H](NC(=O)[C@H](Cc1ccccc1)NC(=O)c1cnccn1)B(O)O [Bortezomib] (partner 0.002 µM)
In short: as §1

Dactolisib + Vorinostat = compound: Cn1c(=O)n(-c2ccc(C(C)(C)C#N)cc2)c2c3cc(-c4cnc5ccccc5c4)ccc3ncc21 [Dactolisib] + O=C(CCCCCCC(=O)Nc1ccccc1)NO [Vorinostat] (partner 1 µM)
In short: as §1

Cell Line | relative viability (AZ505 + Palbociclib; first compound 0.08 µM) | relative viability (AZ505 + Palbociclib; first compound 0.253 µM) | relative viability (AZ505 + Palbociclib; first compound 0.8 µM) | relative viability (AZ505 + Palbociclib; first compound 8 µM) | relative viability (AZ505 + Crizotinib; first compound 0.08 µM) | relative viability (AZ505 + Crizotinib; first compound 0.253 µM) | relative viability (AZ505 + Crizotinib; first compound 0.8 µM) | relative viability (AZ505 + Crizotinib; first compound 2.53 µM) | relative viability (AZ505 + Crizotinib; first compound 8 µM) | relative viability (Dactolisib + Bortezomib; first compound 0.002 µM) | relative viability (Dactolisib + Bortezomib; first compound 0.006325 µM) | relative viability (Dactolisib + Bortezomib; first compound 0.02 µM) | relative viability (Dactolisib + Bortezomib; first compound 0.06325 µM) | relative viability (Dactolisib + Bortezomib; first compound 0.2 µM) | relative viability (Dactolisib + Vorinostat; first compound 0.002 µM) | relative viability (Dactolisib + Vorinostat; first compound 0.006325 µM) | relative viability (Dactolisib + Vorinostat; first compound 0.02 µM) | relative viability (Dactolisib + Vorinostat; first compound 0.06325 µM) | relative viability (Dactolisib + Vorinostat; first compound 0.2 µM) | relative viability (AZ505 + Palbociclib; first compound 2.53 µM)
LCLC-97TM1 | 0.213 | 0.252 | 0.219 | 0.232 | 0.503 | 0.479 | 0.478 | 0.709 | 0.413 | 0.766 | 0.489 | 0.528 | 0.525 | 0.128 | 0.615 | 0.655 | 0.612 | 0.251 | 0.311 | 
LCLC-103H | 0.485 | 0.455 | 0.455 | 0.452 | 0.868 | 1.03 | 0.987 | 1.01 | 0.969 | 1.03 | 1.14 | 0.964 | 0.743 | 0.71 | 0.82 | 0.863 | 0.719 | 0.443 | 0.412 | 0.45
LOU-NH91 | 0.55 | 0.534 | 0.551 | 0.536 | 0.713 | 0.723 | 0.722 | 0.778 | 0.72 | 0.526 | 0.502 | 0.49 | 0.458 | 0.43 | 0.903 | 0.898 | 0.784 | 0.524 | 0.529 | 0.562
LU99A | 0.363 | 0.447 | 0.403 | 0.367 | 0.474 | 0.592 | 0.594 | 0.638 | 0.575 | 1.12 | 0.903 | 0.543 | 0.366 | 0.249 | 0.417 | 0.368 | 0.407 | 0.246 | 0.162 | 
LXF-289 | 0.552 | 0.608 | 0.568 | 0.588 | 0.738 |  | 0.812 | 0.788 | 0.762 | 1.07 | 1.03 | 1.07 | 0.971 | 0.648 | 0.879 | 0.789 | 0.741 | 0.815 | 0.565 | 0.594
NCI-H23 | 0.465 | 0.522 | 0.505 | 0.485 | 0.502 |  | 0.443 | 0.638 | 0.557 | 1.04 | 0.924 | 0.798 | 0.247 | 0.294 | 0.512 | 0.49 | 0.462 | 0.18 | 0.176 | 0.533
NCI-H322M | 0.53 |  | 0.473 | 0.503 | 0.93 | 0.786 | 0.878 | 0.828 | 0.931 | 1.21 | 1.24 | 1.13 | 1.07 | 0.838 | 0.941 | 0.862 | 0.734 | 0.599 | 0.609 | 0.489
NCI-H441 | 0.228 | 0.233 | 0.258 | 0.223 | 0.615 | 0.823 | 0.995 | 0.699 | 0.738 | 0.523 | 0.457 | 0.305 | 0.157 | 0.196 | 0.841 | 0.675 | 0.802 | 0.276 | 0.34 | 0.231
NCI-H460 | 0.183 | 0.162 | 0.147 | 0.167 | 0.78 | 1.08 | 0.898 | 0.784 | 0.782 | 1.28 | 1.11 | 0.984 | 0.106 | 0.0739 | 0.643 | 0.659 | 0.723 | 0.127 | 0.173 | 0.187
NCI-H520 | 0.229 | 0.235 | 0.201 | 0.237 | 0.744 | 0.899 | 0.704 | 0.727 | 0.728 | 0.397 | 0.715 | 0.263 | 0.121 | 0.134 | 0.747 | 0.596 | 0.416 | 0.212 | 0.151 | 0.263
NCI-H647 | 0.362 | 0.461 | 0.387 | 0.432 | 0.941 | 1.15 | 0.993 | 0.957 | 1.25 | 0.868 | 0.798 | 0.42 | 0.193 | 0.143 | 0.369 | 0.308 | 0.265 | 0.123 | 0.0977 | 0.429
NCI-H650 | 0.279 | 0.377 | 0.322 | 0.309 | 0.604 | 0.749 | 0.698 | 0.642 | 0.758 | 0.884 | 0.774 | 0.834 | 0.653 | 0.3 | 0.414 | 0.501 | 0.469 | 0.306 | 0.179 | 0.395
NCI-H661 | 0.404 | 0.433 | 0.402 | 0.372 |  | 0.941 |  | 0.977 | 0.942 | 0.659 | 0.87 | 0.67 | 0.397 | 0.288 | 0.773 | 0.766 | 0.71 | 0.455 | 0.391 | 0.422
NCI-H727 | 0.598 | 0.687 | 0.625 | 0.674 | 0.683 | 0.829 | 0.738 | 0.805 | 0.827 | 1.03 | 0.58 | 0.872 | 0.35 | 0.267 |  | 1.31 | 1.16 | 0.981 | 1.3 | 0.552
NCI-H838 | 0.236 | 0.191 | 0.195 | 0.195 | 0.773 | 0.841 | 0.809 | 0.824 | 0.743 | 0.852 | 0.725 | 0.434 | 0.22 | 0.242 | 0.746 | 0.575 | 0.497 | 0.36 | 0.306 | 0.216
NCI-H1355 | 0.369 | 0.398 | 0.396 | 0.374 | 1.06 | 1.04 | 1.12 | 1.02 | 1.05 | 1.21 | 1.21 | 1.13 | 0.937 | 0.525 | 0.693 | 0.608 | 0.558 | 0.408 | 0.295 | 0.367
